This is an account of results in US20130296384A1, “N-SUBSTITUTED(6 HALOALKYLPYRIDIN 3 YL)ALKYL SULFOXIMINES AS A SEED TREATMENT TO CONTROL COLEOPTERAN INSECTS” (Dow AgroSciences LLC, priority 2012, published 2013).

For assay [1], the system named is canola (Brassica napus). In words: Canola seed treatment field test: canola plant vigor under natural flea beetle infestation. The assay is classed as in vivo. To be noted: 13 days after canola emergence. On the procedure:
(§1) The effectiveness of sulfoxaflor as a canola (Brassica napus) seed treatment to control feeding damage by cabbage flea beetle (Phyllotreta cruciferae) was evaluated against the commercial standard thiamethoxam (Helix Xtra). Canola seeds were sprayed with a range of insecticides, including Helix Xtra at a use rate of about 0.4 milligrams (mg) thiamethoxam ai/seed, spinosyn A and spinosyn D (spinosad) at a low use rate of about 0.2 mg ai/seed and a high use rate of about 0.6 mg ai/seed, spinetoram at a low use rate of about 0.2 mg ai/seed and a high use rate about 0.6 mg ai/seed, and sulfoxaflor at a low use rate of about 0.2 mg ai/seed and a high use rate about 0.6 mg ai/seed. Each treatment was replicated four (4) times. The canola seeds were planted and then exposed to a natural infestation of the cabbage flea beetles soon after emergence.
Canola plant vigor was evaluated at thirteen (13) days after the canola seed emerged from the ground described above. […] As depicted in FIG. 3, both the low use rate of sulfoxaflor and the high use rate of sulfoxaflor facilitated improved canola plant vigor as compared to the use of Helix Xtra.

Assay [2] has as its system canola (Brassica napus). In words: Canola seed treatment field test: canola plant yield under natural flea beetle infestation. The assay is classed as in vivo. The following applies: 107 days after canola emergence. The method, then: as §1
Canola plant yield was evaluated at 107 days after the canola seed emerged from the ground described above. […] As depicted in FIG. 4, the low use rate of sulfoxaflor facilitated a canola plant yield similar to that facilitated by the use of Helix Xtra, and the high use rate of sulfoxaflor facilitated improved canola plant yield as compared to the use of Helix Xtra.

Where [3] appears, read: high use rate about 0.6 mg ai/seed.
[4] abbreviates: low use rate about 0.2 mg ai/seed.

As for `CC(c1ccc(C(F)(F)F)nc1)S(C)(=O)=NC#N` (stereo not shown) [sulfoxaflor], the canola plant vigor result is listed as “about 69%” with canola (Brassica napus) [1] (setting [3]) and “about 87%” with canola (Brassica napus) [1] (setting [4]). For the same compound, the values for the canola plant yield result in the assay on canola (Brassica napus) [2] (setting [3]) and in the assay with canola (Brassica napus) [2] (setting [4]) were “about 4500 kg/ha” and “about 4050 kilograms (Kg)/hectare (ha)”, respectively.
